For orientation: MIC means the lowest concentration found to suppress growth. The melting point is the temperature of the solid-liquid transition.

The structures appear in SMILES notation.

The record followed here is patent publication US20170342025A1, “ANTIMICROBIAL COMPOUNDS, COMPOSITIONS AND METHODS” (Swansea University, priority 2014, published 2017).

Data set [1] deals with Escherichia coli (strain JM109). Description: MIC determination against Escherichia coli (Andrews protocol). The data set is classed as cell-based. To be noted: Escherichia coli, Escherichia coli strain JM109; read-out: MIC E. coli. As to the method: (§1) Minimum Inhibitory Concentrations (MICs) for the compounds prepared were determined against Escherichia coli (strain JM109) and Staphylococcus aureus (strain 9518) using the protocols described by Andrews (J. Antimicrob. Chemother., 2001, 48, Suppl. S1, 5-16).

The subject of data set [2] is methicillin-resistant staphylococcus aureus (MRSA) strain EMRSA-15. Briefly: MIC against MRSA strain EMRSA-15. The data set is classed as cell-based. To be noted: second MRSA strain, text names EMRSA-15, read-out: MIC against MRSA-1. As to the method:
as §1
(§2) In addition, three compounds were tested against methicillin-resistant staphylococcus aureus (MRSA) strains MRSA-III (ST239) and EMRSA-15.

For data set [3], the system named is methicillin-resistant staphylococcus aureus (MRSA) strain MRSA-III (ST239). Briefly: MIC against MRSA strain MRSA-III (ST239). To be noted: MRSA-III (ST239), read-out: MIC against MRSA-III. Format: cell-based. As to the method:
as §1, §2

The subject of data set [4] is Staphylococcus aureus (strain 9518). Description: MIC determination against Staphylococcus aureus (Andrews protocol). The data set is classed as cell-based. To be noted: Staphylococcus aureus, Staphylococcus aureus strain 9518; read-out: MIC S. aureus. As to the method: as §1

Consider `CC(=O)O.N=C(N)NN=Cc1cccc(OCc2cccc(Cl)c2Cl)c1` [Compound 49a, 1-[({3-[(2,3-dichlorophenyl)methoxy]phenyl}methylidene)amino]guanidine acetate], for which the melting point lay within 159 to 160 °C. Moreover, in data set [1], the MIC lay in the range of 1 to 10 µg/mL. Moreover, the MIC in data set [2] lay within 1 to 10 µg/mL. The MIC in data set [3] is 1 to 10 µg/mL. The MIC in data set [4] lay in the range of 1 to 10 µg/mL.
